Experiments:
Format in all cases: in vivo
[1] = tested on: Echinochloa crus-galli (ECHCG); experiment: Biological Example 2 comparative herbicidal data, post-emergence glasshouse screen; conditions: 312 h, read-out: Post-emergence herbicidal activities (percentage phytotoxicity) ECHCG; for pest or weed control at 8 g/ha: 8 g/ha application rate; for pest or weed control at 30 g/ha: 30 g/ha application rate
Description: (§1) Seeds of a variety of test species were sown in standard soil in pots. After cultivation for one day (pre-emergence) or after 8 days cultivation (post-emergence) under controlled conditions in a glasshouse (at 24/16° C., day/night; 14 hours light; 65% humidity), the plants were sprayed with an aqueous spray solution derived from the formulation of the technical active ingredient in acetone/I water (50:50) solution containing 0.5% Tween 20 (polyoxyethelyene sorbitan monolaurate, CAS RN 9005-64-5). The test plants were then grown in a glasshouse under controlled conditions in a glasshouse (at 24/16° C., day/night; 14 hours light; 65% humidity) and watered twice daily. After 13 days for pre and post-emergence, the test was evaluated visually for percentage phytotoxicity to the plant (where 100=total damage to plant; 0=no damage to plant).
(§2) Comparative herbicidal data is given below for certain exemplified compounds with 4-(prop-1-ynyl)-2,6-dimethylphenyl or 4-(chloroethynyl)-2,6-dimethylphenyl headgroups, compared to the corresponding compounds with either 4-ethynyl-2,6-dimethylphenyl or 2,4,6-trimethylphenyl headgroups, as follows. Comparative herbicidal data is also given below for certain exemplified compounds with 4-(prop-1-ynyl)-2-chloro-6-methoxyphenyl headgroups, compared to the corresponding compounds with 4-ethynyl-2-chloro-6-methoxyphenyl or 4-(but-1-ynyl)-2-chloro-6-methoxyphenyl or 4-methyl-2-chloro-6-methoxyphenyl or 2-chloro-6-methoxyphenyl headgroups, as follows.
(§3) Except where specified otherwise, the glasshouse screen for herbicidal activity is substantially the same as that presented in Biological Example 1A (Test 1A) hereinabove. The weed abbreviations are as defined in Biological Example 1A.

[2] = tested on: Alopecurus myosuroides (ALOMY); experiment: as above; conditions: 312 h, read-out: Post-emergence herbicidal activities (percentage phytotoxicity) ALOMY; for pest or weed control at 8 g/ha: 8 g/ha application rate; for pest or weed control at 30 g/ha: 30 g/ha application rate
Description: as §1, §2, §3

Setaria faberi (SETFA) [3] = experiment: as above; conditions: 312 h, read-out: Post-emergence herbicidal activities (percentage phytotoxicity) SETFA; for pest or weed control at 8 g/ha: 8 g/ha application rate; for pest or weed control at 30 g/ha: 30 g/ha application rate
Description: as §1, §2, §3

[4] = tested on: Abutilon theophasti Medik. (ABUTH); experiment: as above; conditions: read-out: Post-emergence herbicidal activities (percentage phytotoxicity) ABUTH; for pest or weed control at 8 g/ha: 8 g/ha application rate; for pest or weed control at 30 g/ha: 30 g/ha application rate
[5] = tested on: Abutilon theophasti Medik. (ABUTH); experiment: Test 1A glasshouse assay for herbicidal activity, pre-emergence; conditions: 312 h, 250 g/ha, evaluated after 13 days, read-out: percentage phytotoxicity ABUTH
Description: as §1
(§4) Alopecurus myosuroides (ALOMY), Setaria faberi (SETFA), Echinochloa crus-galli (ECHCG), Solanum nigrum (SOLNI), Amaranthus retroflexus (AMARE), Ipomoea hederacea (IPOHE), and Abutilon theophasti Medik. (ABUTH, common English name “velvetleaf”). Of these, Alopecurus myosuroides (ALOMY), Setaria faberi (SETFA), and Echinochloa crus-galli (ECHCG) are grassy monocotyledonous weeds.

[6] = tested on: Echinochloa crus-galli (ECHCG); experiment: as above; conditions: 312 h, 250 g/ha, evaluated after 13 days, read-out: percentage phytotoxicity ECHCG
Description: as §1, §4

[7] = tested on: Amaranthus retroflexus (AMARE); experiment: as above; conditions: 312 h, 250 g/ha, evaluated after 13 days, read-out: percentage phytotoxicity AMARE
Description: as §1, §4

[8] = tested on: Alopecurus myosuroides (ALOMY); experiment: as above; conditions: 312 h, 250 g/ha, evaluated after 13 days, read-out: percentage phytotoxicity ALOMY
Description: as §1, §4

Setaria faberi (SETFA) [9] = experiment: as above; conditions: 312 h, 250 g/ha, evaluated after 13 days, read-out: percentage phytotoxicity SETFA
Description: as §1, §4

[10] = tested on: Abutilon theophasti Medik. (ABUTH); experiment: Test 1A glasshouse assay for herbicidal activity, post-emergence; conditions: 312 h, evaluated after 13 days, read-out: percentage phytotoxicity ABUTH
Description: as §1, §4

[11] = tested on: Echinochloa crus-galli (ECHCG); experiment: as above; conditions: 312 h, evaluated after 13 days, read-out: percentage phytotoxicity ECHCG
Description: as §1, §4

[12] = tested on: Amaranthus retroflexus (AMARE); experiment: as above; conditions: 312 h, evaluated after 13 days, read-out: percentage phytotoxicity AMARE
Description: as §1, §4

[13] = tested on: Alopecurus myosuroides (ALOMY); experiment: as above; conditions: 312 h, evaluated after 13 days, read-out: percentage phytotoxicity ALOMY
Description: as §1, §4

Setaria faberi (SETFA) [14] = experiment: as above; conditions: 312 h, evaluated after 13 days, read-out: percentage phytotoxicity SETFA
Description: as §1, §4

[15] = tested on: Amarantus retroflexus (AMARE); experiment: Biological Example 2 comparative herbicidal data, post-emergence glasshouse screen; conditions: Amaranthus retroflexus, read-out: Post-emergence herbicidal activities (percentage phytotoxicity) AMARE; for pest or weed control at 8 g/ha: 8 g/ha application rate; for pest or weed control at 30 g/ha: 30 g/ha application rate

Row | Compound | pest or weed control at 8 g/ha [1] [%] | pest or weed control at 30 g/ha [1] [%] | pest or weed control at 8 g/ha [2] [%] | pest or weed control at 30 g/ha [2] [%] | pest or weed control at 8 g/ha (Setaria faberi (SETFA) [3]) [%] | pest or weed control at 30 g/ha (Setaria faberi (SETFA) [3]) [%] | pest or weed control at 8 g/ha [4] [%] | pest or weed control at 30 g/ha [4] [%] | pest or weed control at 250 g/ha [5] [%] | pest or weed control at 250 g/ha [6] [%] | pest or weed control at 250 g/ha [7] [%] | pest or weed control at 250 g/ha [8] [%] | pest or weed control at 250 g/ha (Setaria faberi (SETFA) [9]) [%] | pest or weed control at 250 g/ha [10] [%] | pest or weed control at 250 g/ha [11] [%] | pest or weed control at 250 g/ha [12] [%] | pest or weed control at 250 g/ha [13] [%] | pest or weed control at 250 g/ha (Setaria faberi (SETFA) [14]) [%] | pest or weed control at 8 g/ha [15] [%] | pest or weed control at 30 g/ha [15] [%] | further results
1 | CC#Cc1cc(Cl)c(C2C(=O)CCCC2=O)c(OC)c1 [Compound A-22, 2-(2-Chloro-6-methoxy-4-prop-1-ynyl-phenyl)cyclohexane-1,3-dione] | 80 | 90 | 10 | 60 | 70 | 80 | 0 | 10 | 60 | 100 | 70 | 90 | 100 | 70 | 100 | 0 | 90 | 100 | 0 | 20 | pest or weed control at 30 g/ha [10]: 10%; pest or weed control at 30 g/ha [11]: 90%; pest or weed control at 30 g/ha [12]: 20%; pest or weed control at 30 g/ha [13]: 60%; pest or weed control at 30 g/ha (Setaria faberi (SETFA) [14]): 80%
2 | CSC(C)CC1CC(=O)C(c2c(C)cc(C)cc2C)C(=O)C1 (stereo not drawn) [Compound X-8, reference compound] | – | 70 | – | 70 | – | 80 | – | 0 | – | – | – | – | – | – | – | – | – | – | – | 0 | –
3 | COc1cccc(Cl)c1C1C(=O)CC2(CCOCC2)CC1=O [Compound X-6, reference compound] | – | 10 | – | 20 | – | 10 | – | 0 | – | – | – | – | – | – | – | – | – | – | – | 20 | –
4 | CC#Cc1cc(C)c(C2C(=O)CC(CC(C)SC)CC2=O)c(C)c1 (stereo not drawn) [Compound A-24, 2-(2,6-Dimethyl-4-prop-1-ynyl-phenyl)-5-(2-methylsulfanylpropyl)cyclohexane-1,3-dione] | – | 100 | – | 90 | – | 100 | – | 0 | 20 | 100 | 80 | 90 | 100 | 60 | 100 | 60 | 100 | 100 | – | 0 | pest or weed control at 30 g/ha [10]: 0%; pest or weed control at 30 g/ha [11]: 100%; pest or weed control at 30 g/ha [12]: 0%; pest or weed control at 30 g/ha [13]: 90%; pest or weed control at 30 g/ha (Setaria faberi (SETFA) [14]): 100%
5 | C#Cc1cc(Cl)c(C2C(=O)C3CCC(C3)C2=O)c(OC)c1 (stereo not drawn) [Compound B-3, 3-(2-Chloro-4-ethynyl-6-methoxy-phenyl)bicyclo[3.2.1]octane-2,4-dione] | 20 | 70 | 0 | 30 | 20 | – | 0 | 0 | 100 | 90 | 90 | 80 | 100 | 0 | 100 | 0 | 80 | 90 | 0 | 0 | –
6 | CCC#Cc1cc(Cl)c(C2C(=O)C3CCC(C3)C2=O)c(OC)c1 (stereo not drawn) [Compound B-4] | – | 80 | – | 60 | – | 70 | – | 0 | 10 | 100 | 40 | 100 | 70 | 70 | 100 | 30 | 100 | 90 | – | 20 | –
7 | CSCCC1CC(=O)C(c2c(C)cc(C)cc2C)C(=O)C1 (stereo not drawn) [Compound X-7, reference compound] | 0 | 10 | 0 | 30 | 0 | 20 | 0 | 0 | – | – | – | – | – | – | – | – | – | – | 0 | 0 | –
8 | C#Cc1cc(Cl)c(C2C(=O)CCCC2=O)c(OC)c1 [Compound B-2, 2-(2-Chloro-4-ethynyl-6-methoxy-phenyl)-3-hydroxy-cyclohex-2-en-1-one] | 0 | 80 | 0 | 0 | 10 | 70 | 0 | 0 | 10 | 90 | 10 | 60 | 90 | 0 | 100 | 0 | 70 | 90 | 0 | 0 | –
9 | COc1cc(C)cc(Cl)c1C1C(=O)C2CCC(C2)C1=O (stereo not drawn) [Compound X-5, reference compound] | 0 | 80 | 0 | 30 | 20 | 60 | 0 | 10 | – | – | – | – | – | – | – | – | – | – | 30 | 30 | –

— patent US9615577B2, “Herbicidally active cyclic dione compounds, or derivatives therefor, substituted by a phenyl which has an alkynyl-containing substituent” (Syngenta Limited, priority 2012, dated 2017)
